Measured values from US8796452B2, “Preparation of lamivudine form I” (Merck Sharp & Dohme Corp., priority 2010, dated 2014).

Legend:
[1] = Equilibration of physical mixtures of Forms I, II and III in water-2-butanone solvent systems (most thermodynamically stable crystal form); assay type: physicochemical; conditions: for water content of water-2-butanone mixtures in which Form I is thermodynamically stable: slurry equilibrated by aging
Experimental: Each admixture was then equilibrated by aging at its temperature until the relative amounts of each crystalline form remained constant. At the completion of equilibration, each admixture contained a slurry of a single crystal form, or a slurry in which one crystal form dominates. This crystal form is the most thermodynamically stable at the admixture conditions of temperature and water concentration. Form. […] Similarly, Form I was determined to be thermodynamically stable in water-2-butanone mixtures at about 25° C. when the mixtures contained from 3.5 to 6.0 wt. % water, and at about 50° C. when the mixtures contained from 5.0 to 8.5 wt. % water. Additional data was collected for the boundary between form I and form III; i.e., at 20° C. […] The data are shown in a phase map of temperature versus wt. % water in FIG. 1.

[2] = EtOH-water mixtures at 25° C.; cited from earlier work
[3] = milling, or storage at up to 45° C. at a relative humidity of 25% to 85%; Form I made by the process of WO 2009/069013; cited from earlier work

water content in 2-butanone at which Form I is more stable than Form III (Form I/Form III boundary) ([1]; 20° C.): less than 5.7 wt % water
water content in 2-butanone at which Form I is more stable than Form III (Form I/Form III boundary) ([1]; 30° C.): less than 6.6 wt % water
water content of water-2-butanone mixtures in which Form I is thermodynamically stable ([1]; about 0° C.): 2.5 to 5.0 wt. % water
water content of water-2-butanone mixtures in which Form I is thermodynamically stable ([1]; about 25° C.): 3.5 to 6.0 wt. % water
water content of water-2-butanone mixtures in which Form I is thermodynamically stable ([1]; about 50° C.): 5.0 to 8.5 wt. % water
SMILES: Nc1ccn([C@@H]2CS[C@H](CO)O2)c(=O)n1 [Form I]
water that must be present in EtOH to convert the excess solid to Form I at equilibrium [2]: 18-20%
conversion of Form I to Form II [3]: will not convert to Form II
